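Results reflect a 48-hour exposure of cells in 96-well plates to compound at five concentrations. GI50: concentration for 50% inhibition of growth. The concentration for full growth arrest is given as TGI.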
Columns and labels:
Assay in all cases: NCI anticancer screen, dose series, 48 h
[1] = system: RPMI-8226 leukemia
[2] = system: NCI-H522 lung
[3] = system: SK-MEL-5 melanoma
[4] = system: RXF 393 renal
[5] = system: OVCAR-3 ovarian
[6] = system: MALME-3M melanoma
[7] = system: SR leukemia
[8] = system: 786-0 renal
[9] = system: HL-60(TB) leukemia
[10] = system: UACC-257 melanoma

Compound | TGI [1] | TGI [2] | TGI [3] | TGI [4] | TGI [5] | TGI [6] | TGI [7] | TGI [8] | TGI [9] | TGI [10] | GI50 [1] | GI50 [2] | GI50 [3] | GI50 [4] | GI50 [5] | GI50 [6] | GI50 [7] | GI50 [8] | GI50 [9] | GI50 [10]
Cc1noc2cccc(OCc3ccccc3)c12 | > 100 µM | > 100 µM | 41.5 µM | > 100 µM | > 100 µM | > 100 µM | > 100 µM | > 100 µM | > 100 µM | > 100 µM |  |  |  |  |  |  |  |  |  | 
CCN(CC)c1ccc(/C=C2/C[N+](C)(C)C/C(=C/c3ccc(N(CC)CC)cc3)C2=O)cc1 | 1.24 µM | 7.74 µM | 3.62 µM | 10.3 µM | 7.31 µM | 4.38 µM | 3.52 µM | 13.6 µM | 2.16 µM | 6 µM |  |  |  |  |  |  |  |  |  | 
CC(=O)Nc1ccc(/C=C/C(=O)c2ccccc2)cc1 | 17.8 µM | 23.2 µM | 30.3 µM | 27.5 µM | 20.1 µM | 36.9 µM | 22 µM | 53.4 µM | 81.2 µM | 54.7 µM | 3.69 µM | 6.85 µM | 16.2 µM | 13.9 µM | 7410 nM | 16.7 µM | 3240 nM | 23.9 µM | 24800 nM | 20.7 µM
Cc1cc2cc3cc(C)c(N(C)C)cc3[n+](C)c2cc1N(C)C | > 100 µM | 36.1 µM | 6.96 µM | 23.4 µM | 14 µM | 19.4 µM | > 100 µM | 18.8 µM | > 100 µM | 37.7 µM | 4.54 µM | 5.35 µM | 2.1 µM | 6.09 µM | 3130 nM | 3.6 µM | 3160 nM | 5.1 µM | 3220 nM | 4.73 µM
CCCCOc1ccc(NC(=O)n2nc(N)c3ccccc32)cc1 | 28.4 µM | > 89.1 µM | 28.2 µM | 61.2 µM | 42.2 µM | 48.4 µM | 39.5 µM | 48.4 µM | 21 µM | 73.5 µM | 2.63 µM | 23.9 µM | 14.9 µM | 25.8 µM | 19000 nM | 18.9 µM | 16000 nM | 19.7 µM | 813 nM | 24.8 µM
CC(C)[C@H]1CC[C@H]2[C@@H](CC[C@H]3[C@](C)(CN)CCC[C@]23C)C1 | 12.2 µM | 3.82 µM | 17.3 µM | 3.84 µM | 3.84 µM | 7.47 µM | 15.2 µM | 3.24 µM | 4.23 µM | 6.02 µM | 2.9 µM | 1.91 µM | 4.87 µM | 2 µM | 1960 nM | 2.48 µM | 2650 nM | 1.82 µM | 1800 nM | 2.68 µM
Cn1cc(C2=C(c3cn(CCO)c4ccccc34)C(=O)NC2=O)c2ccccc21 | 16 µM | 10.8 µM | 9.67 µM | 9.54 µM | 14 µM | 17.5 µM | > 23.3 µM | > 25 µM | 6.36 µM | 22.6 µM | 5.33 µM | 1.64 µM | 2.55 µM | 3.22 µM | 1780 nM | 6.9 µM | 1020 nM | 5.01 µM | 1120 nM | 4.75 µM
CC/C(=C(/c1ccc(OCCN(C)C)cc1)c1ccc(OC(=O)CCC(=O)c2c(C)[nH]c(/C=C3\N=C(c4ccc[nH]4)C=C3OC)c2C)cc1)c1ccccc1 | 5.58 µM | 5.38 µM | 2.62 µM | 12.6 µM | 10.3 µM | 6.35 µM | 5.38 µM | 5.73 µM | 8.8 µM | 14.7 µM | 1.57 µM | 1.88 µM | 1.31 µM | 2.34 µM | 2080 nM | 2.68 µM | 694 nM | 2.19 µM | 3130 nM | 3.38 µM

Reference: PubChem BioAssay (NCI)
